Measured values reported in ChEMBL document CHEMBL4251546, “Discovery and hit-to-lead evaluation of piperazine amides as selective, state-dependent NaV1.7 inhibitors” (Medchemcomm, 2017).
Values after ≈ are worked out from the molar mass of the structure shown.

Assays:
[1] = test system: Mus musculus; assay: Unbound Cmax in mouse at 100 mg/kg, po; assay type: ADME, organism-based; conditions: in vivo
[2] = Thermodynamic solubility of the compound in PBS at pH 7.4; assay type: physicochemical; conditions: read-out: Therm_solubility
[3] = Plasma concentration in C57Bl/6 mouse histamine dichloride-induced pruritus model at 300 mg/kg, po; assay type: ADME, organism-based; conditions: in vivo
[4] = Cmax in mouse at 100 mg/kg, po; assay type: ADME, organism-based; design: dose 100 mg/kg, route oral; conditions: in vivo
[5] = test system: MDR1 (P-gp); assay: Apparent permeability across MDCK cells transfected with MDR1; assay type: ADME, cell-based, Canis lupus familiaris; conditions: dog

| SMILES | solubility thermodynamic [2] [µM] | also measured |
| --- | --- | --- |
| O=C(NCc1ccccc1)[C@@H](c1ccccc1)N1CCN(C(=O)c2cc(F)ccc2Cl)CC1 | 96 (≈ 44.7 µg/mL) | fCmax [1]: 0.16 µM; concentration [3]: 22 µM; Cmax [4]: 4.3 µM; Papp [5]: 36 ×10⁻⁶ cm/s |
| N#Cc1ccc([C@H](C(=O)NCC(F)(F)C2CC2)N2CCN(C(=O)c3cc(F)ccc3Cl)CC2)cc1 | 154 (≈ 77.8 µg/mL) | fCmax [1]: 3.28 µM; Cmax [4]: 29.8 µM |
| O=C(Nc1ccc(OCC(F)(F)F)nc1)[C@@H](c1ccccc1)N1CCN(C(=O)c2cc(F)cc(F)c2)CC1 | 19 (≈ 10.2 µg/mL) | – |
| N#Cc1ccc([C@H](C(=O)NCc2ccccc2)N2CCN(C(=O)c3cc(F)cc(F)c3)CC2)cc1 | 74 (≈ 35.1 µg/mL) | – |
| O=C(NCc1ccccc1)[C@@H](c1ccccc1)N1CC2CC(C1)N2C(=O)c1cc(F)ccc1Cl | 83 (≈ 39.7 µg/mL) | – |
| O=C(NCc1ccccc1)[C@@H](c1ccccc1)N1CCN(C(=O)c2cc(F)cc(F)c2)CC1 | 137 (≈ 61.6 µg/mL) | – |
| CN(Cc1ccccc1)C(=O)[C@@H](c1ccccc1)N1CCN(C(=O)c2cc(F)cc(F)c2)CC1 | 220 (≈ 102 µg/mL) | – |
| O=C(NCC1CC1)[C@@H](c1ccccc1)N1CCN(C(=O)c2cc(F)cc(F)c2)CC1 | 472 (≈ 195 µg/mL) | – |
| N#Cc1ccc([C@H](C(=O)NCC2CC2)N2CC3CCC(C2)N3C(=O)c2cc(F)ccc2F)cc1 | 326 (≈ 151 µg/mL) | – |
| N#Cc1cc(OC(F)(F)F)cc(C(=O)N2CCN([C@@H](C(=O)NCc3ccccc3)c3ccccc3)CC2)c1 | 44 (≈ 23 µg/mL) | – |
| N#Cc1ccc([C@H](C(=O)Nc2ccc(OCC(F)(F)F)nc2)N2CCN(C(=O)c3cc(F)cc(F)c3)CC2)cc1 | 15 (≈ 8.39 µg/mL) | – |
| COc1cc([C@H](C(=O)NCc2ccccc2)N2CCN(C(=O)c3cc(F)cc(F)c3)CC2)ccc1C#N | 30 (≈ 15.1 µg/mL) | – |
| O=C(NCc1ccccc1)[C@@H](c1ccccc1)N1CCN(Cc2ccccc2)CC1 | 19 (≈ 7.59 µg/mL) | Papp [5]: 24 ×10⁻⁶ cm/s |
| N#Cc1cc(F)cc(C(=O)N2CCN([C@@H](C(=O)NCC(F)(F)C3CC3)c3ccccc3)CC2)c1 | 405 (≈ 191 µg/mL) | fCmax [1]: 1.66 µM; Cmax [4]: 12.8 µM |
| O=C(NCc1ccccc1)[C@@H](c1ccccc1)N1CC2CCC(C1)N2C(=O)c1cc(F)ccc1Cl | 35 (≈ 17.2 µg/mL) | – |
| O=C(NCc1ccc(C(F)(F)F)nc1)[C@@H](c1ccccc1)N1CCN(C(=O)c2cc(F)cc(F)c2)CC1 | 225 (≈ 117 µg/mL) | – |
| O=C(NCc1ccccc1)[C@@H](c1ccccc1)N1CCN(C(=O)c2cc(F)cnc2Cl)CC1 | 454 (≈ 212 µg/mL) | – |
| N#Cc1ccc([C@H](C(=O)NCC2CC2)N2CC3CCC(C2)N3C(=O)c2cc(F)cc(F)c2)cc1 | 322 (≈ 150 µg/mL) | – |
| O=C(NCC(F)(F)C1CC1)[C@@H](c1ccccc1)N1CCN(C(=O)c2cc(F)cc(F)c2)CC1 | 346 (≈ 160 µg/mL) | – |
| N#Cc1cc(F)cc(C(=O)N2CCN([C@@H](C(=O)NCc3ccccc3)c3ccccc3)CC2)c1 | 248 (≈ 113 µg/mL) | – |
| O=C(Nc1ccc(OCC(F)(F)F)nc1)[C@@H](c1ccccc1)N1CCN(C(=O)c2cc(F)cnc2Cl)CC1 | 49 (≈ 27 µg/mL) | – |
